From EP4707280A1, “1,4-CINEOLE DERIVATIVE AND INTERMEDIATE THEREOF, HERBICIDE CONTAINING SAID DERIVATIVE AS ACTIVE INGREDIENT, METHOD FOR USING HERBICIDE, AND METHOD FOR PREPARING AGROCHEMICAL COMPOSITION” (HOKKO CHEMICAL INDUSTRY CO., LTD., priority 2023, dated 2024)

How the values were obtained:
Format in all cases: in vivo
Echinochloa crus-galli [1] = experiment: Test Example 3: herbicidal effect test by soil application in upland field; details: Echinochloa crus-galli, 120 g per 10 ares, sprayed one day after sowing, 14 days after application, read-out: weed inhibition rate
Summary of the method: (§1)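 Weed inhibition (%) was assessed 14 days after treatment, in duplicate per concentration group. Seeds had been mixed into the upper 1 cm of upland alluvial loam, and the soil surface was sprayed one day later with the diluted emulsifiable concentrate at 120 g active ingredient per 10 ares.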

Digitaria ciliaris [2] = experiment: as above; details: Digitaria ciliaris, 120 g per 10 ares, sprayed one day after sowing, 14 days after application, read-out: weed inhibition rate
Summary of the method: as §1

Echinochloa crus-galli [3] = experiment: Test Example 8: herbicidal effect test by stem and leaf treatment in upland field (low dose); details: Echinochloa crus-galli; 7.5 g per 10 ares; sprayed seven days after sowing, upland soil; 14 days after application; read-out: weed inhibition rate
Digitaria ciliaris [4] = experiment: Test Example 4: herbicidal effect test by stem and leaf treatment in upland field; details: Digitaria ciliaris; 120 g per 10 ares; sprayed seven days after sowing, upland soil; 14 days after application; read-out: weed inhibition rate
Echinochloa crus-galli [5] = experiment: as above; details: Echinochloa crus-galli; 120 g per 10 ares; sprayed seven days after sowing, upland soil; 14 days after application; read-out: weed inhibition rate
[6] = system: Echinochloa crus-galli var. formosensis; experiment: Test Example 6: herbicidal effect test by application during growth period of paddy rice (low dose); details: Echinochloa crus-galli; 7.5 g per 10 ares; applied seven days after sowing, flooded pots; 14 days after application; read-out: weed inhibition rate
Summary of the method: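 Emulsifiable concentrate, water-diluted, dropped onto flooded paddy pots 7 days post-sowing at 7.5 g active ingredient/10 a. Greenhouse-grown weeds; percent inhibition scored at day 14 after treatment.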

Scirpus juncoides [7] = experiment: Test Example 2: herbicidal effect test by application during growth period of paddy rice; details: Schoenoplectiella juncoides; 120 g per 10 ares; applied seven days after sowing, flooded pots; 14 days after application; read-out: weed inhibition rate
Summary of the method: (§2)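 Flooded paddy pot test, greenhouse. Seeds 30/species, 0–1 cm depth, water ~3 cm. EC diluted in water, dropper-applied 7 d post-sowing at 120 g a.i./10 a. Inhibition rate (%) read 14 d after treatment; n=2.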

Monochoria vaginalis [8] = experiment: as above; details: Pontederia vaginalis; 120 g per 10 ares; applied seven days after sowing, flooded pots; 14 days after application; read-out: weed inhibition rate
Summary of the method: as §2

[9] = system: Echinochloa crus-galli var. formosensis; experiment: as above; details: Echinochloa crus-galli; 120 g per 10 ares; applied seven days after sowing, flooded pots; 14 days after application; read-out: weed inhibition rate
Summary of the method: as §2

Scirpus juncoides [10] = experiment: Test Example 5: herbicidal effect test by soil application in paddy rice (low dose); details: Schoenoplectiella juncoides, 336 h, 7.5 g per 10 ares, applied immediately after sowing, flooded pots, 14 days after application, read-out: weed inhibition rate
Method: (§3) The present test was conducted in duplicate for each chemical concentration group, and the weed inhibition rate (%) was determined 14 days after chemical application using the following formula (Math. 1). [formula]
(§4) Wagner pots with an area of […] were filled with paddy soil, followed by addition of water and incorporation of chemical fertilizer (N:P:K = 16:16:16), after which puddling was performed. After that, seeds of Echinochloa crus-galli var. formosensis, broad-leaved weeds (Monochoria vaginalis), and Scirpus juncoides were sown at a depth of 0 cm to 1 cm, 30 seeds each. Immediately after sowing, the pots were flooded and a water depth of approximately 3 cm was maintained. Subsequent management was conducted in a glass greenhouse. Immediately thereafter, an emulsifiable concentrate prepared according to Formulation Example 5 using the compound shown below was diluted with water, and a specified amount of the diluted solution was applied by dropper. The amount of the active ingredient to be applied was equivalent to 7.5 g per 10 ares.
(§5) The present test was conducted in duplicate for each chemical concentration group, and the herbicidal effect was evaluated 14 days after chemical application using the same criteria as in Test Example 1.

Monochoria vaginalis [11] = experiment: as above; details: Pontederia vaginalis, 336 h, 7.5 g per 10 ares, applied immediately after sowing, flooded pots, 14 days after application, read-out: weed inhibition rate
Method: as §3, §4, §5

CC(C)[C@]12C=C[C@](C)(O1)C(OCc1ccccc1F)C2 (mixture of isomers) [3-5, (1R,4S,SR)-5-[(2-fluorophenyl)methoxy]-4-methyl-1-isopropyl-7-oxabicyclo[2.2.1]hept-2-ene]
≥ 80%: inhibition at 1200 g/ha (Echinochloa crus-galli [1]) | inhibition at 1200 g/ha (Digitaria ciliaris [2]) | inhibition at 75 g/ha (Echinochloa crus-galli [3]) | inhibition at 1200 g/ha (Digitaria ciliaris [4]) | inhibition at 1200 g/ha (Echinochloa crus-galli [5]) | inhibition at 75 g/ha [6] | inhibition at 1200 g/ha (Scirpus juncoides [7]) | inhibition at 1200 g/ha (Monochoria vaginalis [8]) | inhibition at 1200 g/ha [9] | inhibition at 75 g/ha (Scirpus juncoides [10])

Cc1ccccc1CO[C@@H]1C[C@]2(C(C)C)O[C@@]1(C)C[C@@H]2F [1-2, (1R,2S,4S,5R)-2-fluoro-1-isopropyl-4-methyl-5-((2-methylbenzyl)oxy)-7-oxabicyclo[2.2.1]heptane]
≥ 80%: inhibition at 1200 g/ha (Echinochloa crus-galli [1]) | inhibition at 1200 g/ha (Digitaria ciliaris [2]) | inhibition at 75 g/ha (Echinochloa crus-galli [3]) | inhibition at 1200 g/ha (Digitaria ciliaris [4]) | inhibition at 1200 g/ha (Echinochloa crus-galli [5]) | inhibition at 75 g/ha [6] | inhibition at 1200 g/ha (Scirpus juncoides [7]) | inhibition at 1200 g/ha (Monochoria vaginalis [8]) | inhibition at 1200 g/ha [9] | inhibition at 75 g/ha (Monochoria vaginalis [11])

CC(C)[C@]12C[C@@H](OCc3c(F)cccc3F)[C@](C)(C[C@@H]1F)O2 [1-7, (1S,2R,4R,5S)-2-((2,6-difluorobenzyl)oxy)-5-fluoro-4-isopropyl-1-methyl-7-oxabicyclo[2.2.1]heptane]
≥ 80%: inhibition at 1200 g/ha (Echinochloa crus-galli [1]) | inhibition at 1200 g/ha (Digitaria ciliaris [2]) | inhibition at 75 g/ha (Echinochloa crus-galli [3]) | inhibition at 1200 g/ha (Digitaria ciliaris [4]) | inhibition at 1200 g/ha (Echinochloa crus-galli [5]) | inhibition at 75 g/ha [6] | inhibition at 1200 g/ha (Scirpus juncoides [7]) | inhibition at 1200 g/ha (Monochoria vaginalis [8]) | inhibition at 1200 g/ha [9] | inhibition at 75 g/ha (Scirpus juncoides [10])

CC(C)[C@]12C[C@@H](OCc3ccccc3F)[C@](C)(C[C@@H]1Br)O2 [1-19, (1S,2R,4R,5S)-5-bromo-2-[(2-fluorophenyl)methoxy]-1-methyl-4-isopropyl-7-oxabicyclo[2.2.1]heptane]
≥ 80%: inhibition at 1200 g/ha (Echinochloa crus-galli [1]) | inhibition at 1200 g/ha (Digitaria ciliaris [2]) | inhibition at 75 g/ha (Echinochloa crus-galli [3]) | inhibition at 1200 g/ha (Digitaria ciliaris [4]) | inhibition at 1200 g/ha (Echinochloa crus-galli [5]) | inhibition at 75 g/ha [6] | inhibition at 1200 g/ha (Scirpus juncoides [7]) | inhibition at 1200 g/ha (Monochoria vaginalis [8]) | inhibition at 1200 g/ha [9] | inhibition at 75 g/ha (Scirpus juncoides [10])

CC(C)[C@]12C[C@@H](OCc3ccccc3F)[C@](C)(C[C@@H]1O)O2 [1-30, (1R,2S,4S,5R)-5-((2-fluorobenzyl)oxy)-1-isopropyl-4-methyl-7-oxabicyclo[2.2.1]heptan-2-ol]
≥ 80%: inhibition at 1200 g/ha (Echinochloa crus-galli [1]) | inhibition at 1200 g/ha (Digitaria ciliaris [2]) | inhibition at 75 g/ha (Echinochloa crus-galli [3]) | inhibition at 1200 g/ha (Digitaria ciliaris [4]) | inhibition at 1200 g/ha (Echinochloa crus-galli [5]) | inhibition at 75 g/ha [6] | inhibition at 1200 g/ha (Scirpus juncoides [7]) | inhibition at 1200 g/ha (Monochoria vaginalis [8]) | inhibition at 1200 g/ha [9] | inhibition at 75 g/ha (Scirpus juncoides [10])

CC(C)[C@]12C[C@@H](OCc3c(F)cccc3F)[C@](C)(C[C@@H]1O)O2 [1-41, (1R,2S,4S,5R)-5-((2,6-difluorobenzyl)oxy)-1-isopropyl-4-methyl-7-oxabicyclo[2,2,1]heptan-2-ol]
≥ 80%: inhibition at 1200 g/ha (Echinochloa crus-galli [1]) | inhibition at 1200 g/ha (Digitaria ciliaris [2]) | inhibition at 75 g/ha (Echinochloa crus-galli [3]) | inhibition at 1200 g/ha (Digitaria ciliaris [4]) | inhibition at 1200 g/ha (Echinochloa crus-galli [5]) | inhibition at 75 g/ha [6] | inhibition at 1200 g/ha (Scirpus juncoides [7]) | inhibition at 1200 g/ha (Monochoria vaginalis [8]) | inhibition at 1200 g/ha [9] | inhibition at 75 g/ha (Scirpus juncoides [10])

CO[C@H]1C[C@]2(C)O[C@@]1(C(C)C)C[C@H]2OCc1ccccc1C [1-151, (1 S,2R,4R,5S)-4-isopropyl-5-methoxy-l-methyl-2-((2-methylbenzyl)oxy)-7-oxabicyclo[2.2.1]heptane]
≥ 80%: inhibition at 1200 g/ha (Echinochloa crus-galli [1]) | inhibition at 1200 g/ha (Digitaria ciliaris [2]) | inhibition at 75 g/ha (Echinochloa crus-galli [3]) | inhibition at 1200 g/ha (Digitaria ciliaris [4]) | inhibition at 1200 g/ha (Echinochloa crus-galli [5]) | inhibition at 75 g/ha [6] | inhibition at 1200 g/ha (Scirpus juncoides [7]) | inhibition at 1200 g/ha (Monochoria vaginalis [8]) | inhibition at 1200 g/ha [9] | inhibition at 75 g/ha (Scirpus juncoides [10])

CC(C)[C@]12C[C@@H](OCc3ccccc3F)[C@](C)(C[C@@H]1OCc1ccccc1F)O2 [1-603, (1S,2R,4R,5S)-2,5-bis[(2-fluorophenyl)methoxy]-1-methyl-4-isopropyl-7-oxabicyclo[2.2.1]heptane]
≥ 80%: inhibition at 1200 g/ha (Echinochloa crus-galli [1]) | inhibition at 1200 g/ha (Digitaria ciliaris [2]) | inhibition at 1200 g/ha (Digitaria ciliaris [4]) | inhibition at 1200 g/ha (Echinochloa crus-galli [5]) | inhibition at 75 g/ha [6] | inhibition at 1200 g/ha (Scirpus juncoides [7]) | inhibition at 1200 g/ha (Monochoria vaginalis [8]) | inhibition at 1200 g/ha [9] | inhibition at 75 g/ha (Monochoria vaginalis [11])

CC(C)[C@]12C[C@@H](OCc3cccc(F)c3)[C@](C)(C[C@@H]1Br)O2 [1-690, (1S,2R,4R,5S)-5-bromo-2-[(3-fluorophenyl)methoxy]-1-methyl-4-isopropyl-7-oxabicyclo[2.2.1]heptane]
≥ 80%: inhibition at 1200 g/ha (Echinochloa crus-galli [1]) | inhibition at 1200 g/ha (Digitaria ciliaris [2]) | inhibition at 75 g/ha (Echinochloa crus-galli [3]) | inhibition at 1200 g/ha (Digitaria ciliaris [4]) | inhibition at 1200 g/ha (Echinochloa crus-galli [5]) | inhibition at 75 g/ha [6] | inhibition at 1200 g/ha (Scirpus juncoides [7]) | inhibition at 1200 g/ha (Monochoria vaginalis [8]) | inhibition at 1200 g/ha [9] | inhibition at 75 g/ha (Monochoria vaginalis [11])

CC(C)[C@]12C[C@@H](OCc3ccccc3Br)[C@](C)(C[C@@H]1Br)O2 [1-694, (1S,2R,4R,5S)-5-bromo-2-[(2-bromophenyl)methoxy]-1-methyl-4-isopropyl-7-oxabicyclo[2.2.1]heptane]
≥ 80%: inhibition at 1200 g/ha (Echinochloa crus-galli [1]) | inhibition at 1200 g/ha (Digitaria ciliaris [2]) | inhibition at 75 g/ha (Echinochloa crus-galli [3]) | inhibition at 1200 g/ha (Echinochloa crus-galli [5]) | inhibition at 75 g/ha [6] | inhibition at 1200 g/ha (Monochoria vaginalis [8]) | inhibition at 1200 g/ha [9] | inhibition at 75 g/ha (Monochoria vaginalis [11])

CC(C)CC1C[C@]2(C)O[C@@]1(C(C)C)C[C@H]2OCc1ccccc1F (stereo partly drawn) [1-915, (1S,2R,4R)-2-((2-fluorobenzyl)oxy)-5-isobutyl-4-isopropyl-1-methyl-7-oxabicyclo[2.2.1]heptane]
≥ 80%: inhibition at 1200 g/ha (Echinochloa crus-galli [1]) | inhibition at 1200 g/ha (Digitaria ciliaris [2]) | inhibition at 75 g/ha (Echinochloa crus-galli [3]) | inhibition at 1200 g/ha (Digitaria ciliaris [4]) | inhibition at 1200 g/ha (Echinochloa crus-galli [5]) | inhibition at 75 g/ha [6] | inhibition at 1200 g/ha (Scirpus juncoides [7]) | inhibition at 1200 g/ha (Monochoria vaginalis [8]) | inhibition at 1200 g/ha [9] | inhibition at 75 g/ha (Scirpus juncoides [10])

C=CCO[C@H]1C[C@]2(C)O[C@@]1(C(C)C)C[C@H]2OCc1ccccc1F [1-1602, (1S,2R,4R,5S)-2-[(2-fluorophenyl)methoxy]-1-methyl-4-isopropyl-5-prop-2-enoxy-7-oxabicyclo[2.2.1]heptane]
≥ 80%: inhibition at 1200 g/ha (Echinochloa crus-galli [1]) | inhibition at 1200 g/ha (Digitaria ciliaris [2]) | inhibition at 75 g/ha (Echinochloa crus-galli [3]) | inhibition at 1200 g/ha (Digitaria ciliaris [4]) | inhibition at 1200 g/ha (Echinochloa crus-galli [5]) | inhibition at 75 g/ha [6] | inhibition at 1200 g/ha (Scirpus juncoides [7]) | inhibition at 1200 g/ha (Monochoria vaginalis [8]) | inhibition at 1200 g/ha [9] | inhibition at 75 g/ha (Scirpus juncoides [10])

CC(C)[C@]12C[C@@H](OCc3ccccc3Cl)[C@](C)(CC1=O)O2 [2-11, (1R,4S,5R)-5-((2-chlorobenzyl)oxy)-1-isopropyl-4-methyl-7-oxabicyclo[2.2.1]heptan-2-one]
≥ 80%: inhibition at 1200 g/ha (Echinochloa crus-galli [1]) | inhibition at 1200 g/ha (Digitaria ciliaris [2]) | inhibition at 75 g/ha (Echinochloa crus-galli [3]) | inhibition at 1200 g/ha (Digitaria ciliaris [4]) | inhibition at 1200 g/ha (Echinochloa crus-galli [5]) | inhibition at 75 g/ha [6] | inhibition at 1200 g/ha (Scirpus juncoides [7]) | inhibition at 1200 g/ha (Monochoria vaginalis [8]) | inhibition at 1200 g/ha [9] | inhibition at 75 g/ha (Scirpus juncoides [10])
